Laboratory results reported in US20080138391A1, “SKIN-FRIENDLY DRUG COMPLEXES FOR TRANSDERMAL ADMINISTRATION” (priority 2006, published 2008).

Experiment: Appearance of the composition and solubilization of the drug
Assay type: physicochemical
Method: Following here is an exemplary description of the manufacturing process used to make the pharmaceutical compositions of the present invention. Generally, the active agent is introduced either alone or as a solution in a colloidal dispersion of carbomer. […] If desired, further ingredients such as cosolvents, buffering agents, antioxidants, preservatives, permeation enhancers, etc, as mentioned herein above were added under mechanical stirring.

Q: For `CCCN(CCC)CCc1cccc2c1CC(=O)N2` [ropinirole free base, ropinirole], which “Amount of ropinirole free base solubilized in water as a result of complexation with carbomer” value (complexation with carbomer, alcohol-free) is on record?
A: at least 3.00 % w/w

Q: What about the “Solubility of ropinirole free base in water” value (no complexation) of the same compound?
A: practically insoluble in water
